According to US9328129B2, “Peptidomimetic inhibitors of PSMA” (Washington State University, priority 2010, dated 2016):

What was measured:
[1] = system: LNCaP (PSMA+) cells; assay: Uptake of 99mTc-labeled DTPA-SCN-CTT-54 by cells, as percentage of total probe applied; format: cell-based
Description: (§1) Both LNCaP (PSMA+) and PC3 (PSMA−) cells were treated with DTPA-SCN-CTT-54 labeled with pertechnetate (^99mTcO4^−) reduced with SnCl2. At increasing time points at 37° C., cells were washed free of the probe and uptake was determined as a percentage of the total amount of probe applied.

[2] = system: LNCaP (PSMA+) cells; assay: Extent of internalization of the 99mTc-labeled probe; format: cell-based
Description: as §1

[3] = system: LNCaP PSMA+ tumor xenografts; assay: Biodistribution of the 99mTc-labeled probe in mice bearing LNCaP and PC3 tumor xenografts; format: in vivo, mouse; conditions: LNCaP PSMA+ tumor xenograft, 4 hours following tail-vein injection
Excerpt: Both PSMA+ (LNCaP) and PSMA− (PC3) tumor xenografts were implanted in opposite rear flanks of each mouse. Thus, each mouse served as both a positive and negative control.

[4] = molecular target: T1, PSMA (Homo sapiens, UniProt Q04609); assay: Competitive binding experiments: preincubation with unlabeled CTT-54 before the radiolabeled probe; format: cell-based; conditions: 0 nM CTT-54, probe 2 hours
T1 construct: endogenous in cells; host or cells: LNCaP
T1 sequence (Q04609 whole entry): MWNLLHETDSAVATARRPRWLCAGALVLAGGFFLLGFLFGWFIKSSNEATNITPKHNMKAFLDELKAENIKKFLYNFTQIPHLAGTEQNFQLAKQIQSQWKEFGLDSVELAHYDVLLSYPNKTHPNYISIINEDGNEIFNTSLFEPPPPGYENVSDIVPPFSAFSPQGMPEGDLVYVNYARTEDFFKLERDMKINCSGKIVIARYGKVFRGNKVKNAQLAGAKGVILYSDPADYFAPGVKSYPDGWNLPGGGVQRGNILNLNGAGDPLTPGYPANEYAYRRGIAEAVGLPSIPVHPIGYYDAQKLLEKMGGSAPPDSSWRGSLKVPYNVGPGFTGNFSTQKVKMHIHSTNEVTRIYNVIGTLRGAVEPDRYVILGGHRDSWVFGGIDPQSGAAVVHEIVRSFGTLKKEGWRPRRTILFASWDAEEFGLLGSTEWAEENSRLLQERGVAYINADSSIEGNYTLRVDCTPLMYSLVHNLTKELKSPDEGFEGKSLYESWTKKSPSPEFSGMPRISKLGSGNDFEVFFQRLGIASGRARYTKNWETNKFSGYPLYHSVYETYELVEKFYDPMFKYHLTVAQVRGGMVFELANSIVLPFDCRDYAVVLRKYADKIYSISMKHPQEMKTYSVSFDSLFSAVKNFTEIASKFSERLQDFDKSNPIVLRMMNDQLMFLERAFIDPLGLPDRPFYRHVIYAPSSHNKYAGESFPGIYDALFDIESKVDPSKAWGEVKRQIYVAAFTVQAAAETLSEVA

Row | Structure (SMILES) | time for binding to the cell surface [1] | % uptake ([1]; 30 min) | % uptake ([1]; 2 hr) | % uptake ([1]; 4 hr) | uptake (LNCaP versus PC3 cells) ([1]; labeled with pertechnetate (99mTcO4−) reduced with SnCl2, increasing time points at 37° C.) | % internalization ([2]; 30 min) | % internalization ([2]; 2 hr) | % internalization ([2]; 4 hr) | extent of internalization of the probe ([2]; preliminary studies) | internalization ([2]; within 30 min) | uptake in tumor xenografts (biodistribution) [3] | % Uptake of the radiolabeled probe without competitor [4]
1 | O=C(O)CC[C@H](NP(=O)(O)OC[C@H](NC(=O)CC[C@H](NC(=S)Nc1ccc(CC(CN(CCN(CC(=O)O)CC(=O)O)CC(=O)O)N(CC(=O)O)CC(=O)O)cc1)C(=O)O)C(=O)O)C(=O)O (stereo partly drawn) (99mTc complex, metal not drawn) [DTPA-SCN-CTT-54, N-{[(4-{2-[bis(carboxymethyl)amino]-3-[{2-[bis(carboxymethyl)amino]ethyl} (carboxymethyl)amino]propyl}phenyl)amino]carbonothioyl}-L-γ-glutamyl-O-[{[(1S)-1,3-dicarboxypropyl]amino} (hydroxy)phosphoryl]-L-serine] | ≤ 30 min | 2.30% | 2.94% | 2.34% | exclusive for LNCaP cells | 71.9% | 71.0% | 79.5% | greater than 80% | greater than 70% | substantial uptake | –
2 | O=C(O)CC[C@H](NP(=O)(O)OC[C@H](NC(=O)CC[C@H](NC(=S)Nc1ccc(CC(CN(CCN(CC(=O)O)CC(=O)O)CC(=O)O)N(CC(=O)O)CC(=O)O)cc1)C(=O)O)C(=O)O)C(=O)O (stereo partly drawn) [DTPA-SCN-CTT-54, N-{[(4-{2-[bis(carboxymethyl)amino]-3-[{2-[bis(carboxymethyl)amino]ethyl} (carboxymethyl)amino]propyl}phenyl)amino]carbonothioyl}-L-γ-glutamyl-O-[{[(1S)-1,3-dicarboxypropyl]amino} (hydroxy)phosphoryl]-L-serine] | – | – | – | – | – | – | – | – | – | – | – | 4.46%
